# The source made the active and inactive calls. No cut-off for these calls is given here.
# Key:
# Aspergillus fumigatus [1] = test: Antifungal activity against Aspergillus fumigatus; type: functional
# Aspergillus fumigatus [2] = test: Antifungal activity against Aspergillus fumigatus at 2 ug/disk; type: functional; settings: read-out: IZ
# P388 = test: Cytotoxicity against mouse P388 cells; type: functional, cell-based
# Candida albicans [3] = test: Antifungal activity against Candida albicans at 2 ug/disk; type: functional; settings: for zone of inhibition at 2 µg/disc: read-out: IZ
# Candida albicans [4] = test: Antifungal activity against Candida albicans; type: functional
SMILES,MIC (Aspergillus fumigatus [1]) [µg/mL],MIC (Candida albicans [4]) [µg/mL],zone of inhibition at 2 µg/disc (Aspergillus fumigatus [2]) [mm],IC50 (P388) [µg/mL],zone of inhibition at 2 µg/disc (Candida albicans [3]) [mm],Activity (Candida albicans [3]),Activity (Candida albicans [4])
C\C(Cl)=C/C(Cl)=C/C=C/C=C/C=C/C=C/C(O)=C1\C(=O)[C@H](CC(N)=O)N([C@@H]2OC[C@@H](O)[C@H](O)[C@H]2O[C@@H]2OC[C@@H](O[C@@H]3O[C@H](C)[C@@H](O)[C@@H]3O)[C@@H](O)[C@@H]2O)C1=O [AURANTOSIDE B],0.16,0.63,17.2,> 5,11.8,,
CO[C@@H]1[C@H](O[C@@H]2CO[C@@H](O[C@@H]3[C@@H](O)[C@H](O)CO[C@H]3N3C(=O)/C(=C(O)/C=C/C=C/C=C/C=C/C=C(Cl)/C=C/C=C/C=C(/C)Cl)C(=O)[C@@H]3CC(N)=O)[C@@H](O)[C@@H]2O)O[C@H](C)[C@H]1O,,,,,,inactive,inactive
C/C(Cl)=C/C=C/C(Cl)=C/C=C/C=C/C=C/C=C/C(O)=C1\C(=O)[C@H](CC(N)=O)N([C@@H]2OC[C@@H](O)[C@H](O)[C@H]2O[C@@H]2OC[C@@H](O[C@@H]3O[C@H](C)[C@@H](O)[C@@H]3O)[C@@H](O)[C@@H]2O)C1=O [AURANTOSIDE D],,,11,0.2,9.5,,

# Second part, led by results:
MIC (Aspergillus fumigatus [1]) [µg/mL],MIC (Candida albicans [4]) [µg/mL],SMILES,zone of inhibition at 2 µg/disc (Aspergillus fumigatus [2]) [mm],IC50 (P388) [µg/mL],zone of inhibition at 2 µg/disc (Candida albicans [3]) [mm],Activity (Candida albicans [3]),Activity (Candida albicans [4])
0.04,0.16,CO[C@@H]1[C@H](O[C@@H]2CO[C@@H](O[C@@H]3[C@@H](O)[C@H](O)CO[C@H]3N3C(=O)/C(=C(O)/C=C/C=C/C=C/C=C/C=C(Cl)/C=C/C=C(/C)Cl)C(=O)[C@@H]3CC(N)=O)[C@@H](O)[C@@H]2O)O[C@H](C)[C@H]1O [AURANTOSIDE E],13.6,0.2,9.7,,
0.16,1.25,CO[C@@H]1[C@H](O[C@@H]2CO[C@@H](O[C@@H]3[C@@H](O)[C@H](O)CO[C@H]3N3C(=O)/C(=C(O)/C=C/C=C/C=C/C=C/C=C(Cl)/C=C(\C)Cl)C(=O)[C@@H]3CC(N)=O)[C@@H](O)[C@@H]2O)O[C@H](C)[C@H]1O [AURANTOSIDE A],18,> 5,11.3,,

# — ChEMBL document CHEMBL1144066, “Aurantosides D, E, and F: new antifungal tetramic acid glycosides from the marine sponge Siliquariaspongia japonica” (J Nat Prod, 1999)
